{
  "source": "PubChem BioAssay AID1505",
  "about": "(Sanford-Burnham Center for Chemical Genomics, 2009)",
  "test_system": "Y. pseudotuberculosis YP126 growth, MIC at 37 C",
  "assay": "Y. pseudotuberculosis growth inhibition MIC, strain YP126, 22/37/40 C (AID 1505)",
  "note": "The source made the active and inactive calls. How the calls were made is not given here.",
  "data": [
    {"compound": "Cc1ccc(CNC(=O)c2ccc([N+](=O)[O-])o2)cc1", "values": [
      {"measurement": "MIC", "value": 25, "unit": "µM"},
      {"measurement": "MIC", "setting": "measured here: MIC at 22 C", "value": 400, "unit": "µM"},
      {"measurement": "MIC", "setting": "measured here: MIC at 40 C", "value": "< 12", "unit": "µM"}
    ]},
    {"compound": "O=C(Nc1ccc2[nH]ccc2c1)c1cccs1", "values": [
      {"measurement": "MIC", "value": "400 µM (inactive)"},
      {"measurement": "MIC", "setting": "measured here: MIC at 22 C", "value": 400, "unit": "µM"},
      {"measurement": "MIC", "setting": "measured here: MIC at 40 C", "value": 400, "unit": "µM"}
    ]}
  ]
}
